Measurements taken from article PMC9551036, “A selective and orally bioavailable VHL-recruiting PROTAC achieves SMARCA2 degradation in vivo” (Nature Communications, 2022).
Several values for one entry are separate records, joined by “and”; a condition that tells them apart may be missing. Identical values can stand only once. Like-named read-outs stand apart in the source and are kept apart here.

Assays:
[1] = target: T1, (Homo sapiens, UniProt P51532); assay: TR-FRET ternary complex affinity and cooperativity, SMARCA4; type: binding
T1 construct: P51532, residues 1448–1569 with additional N-terminal SM residues; GST (TEV site) (N); His6 (TEV site) (N, cleaved yes); made in house; host or cells: SMARCA4^BD: Escherichia coli BL21(DE3)
T1 sequence (P51532 1448-1569): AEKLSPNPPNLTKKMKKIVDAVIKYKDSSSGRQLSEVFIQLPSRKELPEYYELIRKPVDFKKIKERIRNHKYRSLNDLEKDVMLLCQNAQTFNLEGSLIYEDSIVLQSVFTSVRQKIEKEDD

[2] = target: VCB: PROTAC: SMARCA4^BD ternary complex (Homo sapiens, UniProt P40337+P51532); assay: as above; type: binding; parameters: P51532, residues 1448–1569 with additional N-terminal SM residues; GST (TEV site) (N); His6 (TEV site) (N, cleaved yes); made in house; host or cells: SMARCA4^BD: Escherichia coli BL21(DE3)
VCB: PROTAC: SMARCA4^BD ternary complex, sequence (P51532 1448-1569): as above
VCB: PROTAC: SMARCA4^BD ternary complex, sequence (P40337 54-213): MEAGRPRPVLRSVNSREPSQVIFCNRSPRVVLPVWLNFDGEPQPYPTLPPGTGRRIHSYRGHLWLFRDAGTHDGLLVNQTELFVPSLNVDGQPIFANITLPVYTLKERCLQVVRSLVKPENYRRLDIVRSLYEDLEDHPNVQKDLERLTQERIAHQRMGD
VCB: PROTAC: SMARCA4^BD ternary complex, sequence (Q15369 17-112 partner): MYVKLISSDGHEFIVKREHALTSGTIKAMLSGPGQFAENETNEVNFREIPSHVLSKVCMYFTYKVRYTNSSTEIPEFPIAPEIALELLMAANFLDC
VCB: PROTAC: SMARCA4^BD ternary complex, sequence (Q15370 1-104 partner): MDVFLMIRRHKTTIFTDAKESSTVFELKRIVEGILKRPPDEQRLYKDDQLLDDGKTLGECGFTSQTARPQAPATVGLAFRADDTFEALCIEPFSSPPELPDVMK

[3] = target: SMARCA2 (Homo sapiens, UniProt P51531); assay: SMARCA2 capillary electrophoresis protein assay in RKO cells; type: cell-based; parameters: endogenous in cells; host or cells: RKO, NCI-H1568, A549, HCT116, LU99, HCC-364, HCT-15, HCC4006, SK-N-AS; settings: mean ± SD
SMARCA2, sequence (P51531 whole entry): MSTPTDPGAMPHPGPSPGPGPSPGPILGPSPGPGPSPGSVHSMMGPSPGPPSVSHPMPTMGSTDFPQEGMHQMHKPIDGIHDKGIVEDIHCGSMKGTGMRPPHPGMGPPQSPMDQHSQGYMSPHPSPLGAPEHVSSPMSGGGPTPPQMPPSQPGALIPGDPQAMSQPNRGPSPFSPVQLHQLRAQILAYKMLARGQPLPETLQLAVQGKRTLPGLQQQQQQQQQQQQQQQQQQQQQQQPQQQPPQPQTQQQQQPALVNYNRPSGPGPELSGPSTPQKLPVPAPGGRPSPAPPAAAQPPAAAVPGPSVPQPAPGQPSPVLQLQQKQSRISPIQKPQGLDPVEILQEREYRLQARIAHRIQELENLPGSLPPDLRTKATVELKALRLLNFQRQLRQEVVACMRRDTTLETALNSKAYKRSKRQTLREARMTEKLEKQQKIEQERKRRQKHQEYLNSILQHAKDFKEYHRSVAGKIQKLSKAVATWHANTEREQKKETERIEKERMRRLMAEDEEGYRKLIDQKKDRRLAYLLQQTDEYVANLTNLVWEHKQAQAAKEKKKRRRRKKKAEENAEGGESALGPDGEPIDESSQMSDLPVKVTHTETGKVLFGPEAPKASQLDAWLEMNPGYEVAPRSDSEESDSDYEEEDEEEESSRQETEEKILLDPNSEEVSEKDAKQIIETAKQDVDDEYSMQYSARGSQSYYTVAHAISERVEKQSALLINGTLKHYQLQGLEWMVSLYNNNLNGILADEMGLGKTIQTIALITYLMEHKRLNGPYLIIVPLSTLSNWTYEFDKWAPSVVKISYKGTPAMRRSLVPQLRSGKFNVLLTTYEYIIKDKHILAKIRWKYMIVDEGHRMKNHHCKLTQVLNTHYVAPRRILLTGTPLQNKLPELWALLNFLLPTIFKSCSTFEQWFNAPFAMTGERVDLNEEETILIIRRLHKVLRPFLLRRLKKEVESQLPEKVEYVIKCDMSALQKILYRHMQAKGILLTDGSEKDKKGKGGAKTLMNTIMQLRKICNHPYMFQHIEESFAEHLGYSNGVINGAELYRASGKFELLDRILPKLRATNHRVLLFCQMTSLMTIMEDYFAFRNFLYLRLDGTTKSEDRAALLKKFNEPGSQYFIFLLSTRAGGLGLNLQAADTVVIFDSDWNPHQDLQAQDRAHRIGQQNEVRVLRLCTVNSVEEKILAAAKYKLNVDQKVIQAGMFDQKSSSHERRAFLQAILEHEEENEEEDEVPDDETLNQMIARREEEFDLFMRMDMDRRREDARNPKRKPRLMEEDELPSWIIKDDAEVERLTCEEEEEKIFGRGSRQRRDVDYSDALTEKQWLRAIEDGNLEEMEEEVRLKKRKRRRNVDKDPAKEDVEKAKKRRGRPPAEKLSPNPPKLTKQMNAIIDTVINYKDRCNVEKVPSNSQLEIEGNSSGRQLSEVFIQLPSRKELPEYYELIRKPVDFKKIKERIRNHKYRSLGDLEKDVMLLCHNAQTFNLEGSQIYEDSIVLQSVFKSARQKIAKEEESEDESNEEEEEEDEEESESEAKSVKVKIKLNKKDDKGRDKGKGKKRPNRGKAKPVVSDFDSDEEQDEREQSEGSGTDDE
Experimental: 130,000–200,000 cells were seeded in 24-well plates and incubated until settled down or overnight. Compounds were dissolved in DMSO and added to cells in indicated concentrations using a digital dispenser following an optional media change. […] For SMARCA2/4 half-life determination, 150,000 or 200,000 cells were seeded in 24-well plates. […] For SMARCA2/4 re-synthesis measurements, 200,000 cells were seeded in 24-well plates. […] Medium was removed, cells were washed with PBS and lysed with 80 µl Lysis Buffer (MSD Tris Lysis Buffer (#R60TX-2) + Halt Inhibitor Cocktail (100x) + Benzonase 0.5 µL/ml). Samples were frozen at −80 °C and thawed at room temperature before use. Samples were transferred to a V-bottom plate and insoluble debris was pelleted by centrifugation for 5 min at maximum speed. The supernatant was transferred to a fresh plate. Master Mix and Ladder were prepared according to manufacturer’s instructions for 12–230 kDa Wes Separation Module, 8 × 25 capillary cartridges, Protein Simple #SM-W004 with Anti-Rabbit Detection Module for Wes, Peggy Sue or Sally Sue, Protein Simple #DM-001. 4.8 µl lysate were mixed with 1.2 µl Master Mix to achieve a protein concentration of ~0.5 µg/µl. […] Wes plates were prepared and run according to manufacturer’s instructions. Proteins were quantified with accompanying Compass Software. SMARCA2/4 protein levels were normalised to GAPDH. […] Where applicable, curves were fitted using a 4-parametric logistic model.

[4] = target: T2, PBRM1 BD (Homo sapiens, UniProt Q86U86); assay: TR-FRET binary and ternary (PROTAC + VCB) affinity, PBRM1 bromodomain; type: binding; settings: individual replicates
T2 construct: GST (TEV site) (N); made in house; host or cells: Escherichia coli BL21(DE3)

[5] = target: T3, VCB: PROTAC: SMARCA2^BD ternary complex (Homo sapiens, UniProt P51531); assay: TR-FRET ternary complex affinity and cooperativity, SMARCA2; type: binding
T3 construct: P51531-2, residues 1373-1493 with additional N-terminal SM residues; GST (TEV site) (N); His6 (TEV site) (N, cleaved yes); made in house; host or cells: SMARCA2^BD: Escherichia coli BL21(DE3)
T3 sequence (P51531 with tags, fused parts or gaps isoform P51531-2): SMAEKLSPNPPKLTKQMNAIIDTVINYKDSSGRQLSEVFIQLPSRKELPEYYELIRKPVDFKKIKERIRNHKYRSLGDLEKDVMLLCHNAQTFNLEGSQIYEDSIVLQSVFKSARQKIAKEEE

[6] = test system: PBRM1BD5; assay: TR-FRET ternary complex affinity and cooperativity, PBRM1; type: binding; settings: ratio TR-FRET EC50 / TR-FRET EC50 +VCB measured in the same run, PBRM1BD5
[7] = target: T4, PBRM1BD5 (Homo sapiens, UniProt P40337+Q86U86); assay: as above; type: binding; settings: TR-FRET competition for PBRM1BD5, + VCB; mean ± SD; read-out: TR-FRET Ternary PBRM1BD EC50 (PROTAC + VCB)
T4 construct: GST (TEV site) (N); His6 (TEV site) (N, cleaved yes); made in house; host or cells: PBRM1^BD5: Escherichia coli BL21(DE3)
T4 sequence (Q86U86 645-766): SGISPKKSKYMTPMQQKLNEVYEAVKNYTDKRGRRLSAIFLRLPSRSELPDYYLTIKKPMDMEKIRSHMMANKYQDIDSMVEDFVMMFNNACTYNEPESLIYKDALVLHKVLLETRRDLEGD
T4 sequence (P40337 54-213): as the sequence (P40337 54-213) above
T4 sequence (Q15369 17-112 partner): as the sequence (Q15369 17-112 partner) above
T4 sequence (Q15370 1-104 partner): as the sequence (Q15370 1-104 partner) above

[8] = binary, PROTAC alone, individual replicates, read-out: SMARCA4 BD EC50
[9] = PROTAC + VCB, individual replicates, read-out: Ternary SMARCA4 BD EC50 (PROTAC + VCB)
[10] = PROTAC + VCB, read-out: Ternary PBRM1 BD EC50 (PROTAC + VCB)
[11] = binary, PROTAC alone, read-out: PBRM1 EC50
[12] = binary, PROTAC alone, individual replicates, read-out: SMARCA2 BD EC50
[13] = TR-FRET competition for SMARCA4BD, without VCB, mean ± SD, read-out: TR-FRET SMARCA4BD EC50
[14] = TR-FRET competition for SMARCA4BD, + VCB, mean ± SD, read-out: TR-FRET Ternary SMARCA4BD EC50 (PROTAC + VCB)
[15] = TR-FRET competition for SMARCA2BD, without VCB, mean ± SD, read-out: TR-FRET SMARCA2BD EC50

SMILES | EC50 [1, 8] | EC50 [2, 9] | DC50 ([3]; RKO (4 h)) | DC50 ([3]; RKO (18 h)) | EC50 [4, 10] | EC50 [4, 11] | EC50 [5, 12] | EC50 [1, 13] | EC50 [2, 14] | SMARCA2 Dmax ([3]; RKO (18 h)) | cooperativity α (PBRM1BD) [6] | EC50 [7] | EC50 [5, 15]
CN1CCN(c2nc(=O)c3c(Cl)cccc3o2)CC1 [compound 13] | > 10 µM | > 10 µM | > 25 µM | > 25 µM | > 10 µM | > 10 µM | > 10 µM | – | – | – | – | – | –
Cc1ncsc1-c1ccc(CNC(=O)[C@@H]2C[C@@H](O)CN2C(=O)[C@@H](NC(=O)C2(F)CC2)C(C)(C)C)c(OCCCCN2CCC(c3ccc4c(c3)n(C3CCCC3)c3nc(=O)c5c(Br)cccc5n43)CC2)c1 [compound 23] | 0.148 µM and 0.197 µM and 0.173 µM and 0.183 µM | 0.165 µM and 0.215 µM and 0.18 µM and 0.28 µM | > 25 µM | 0.039 ± 0.01 µM | 0.0183 µM and 0.0229 µM and 0.0221 µM | 0.0462 µM and 0.0379 µM and 0.0382 µM and 0.0361 µM | 0.0885 µM and 0.111 µM and 0.107 µM and 0.0874 µM | 0.174 ± 0.021 µM | 0.206 ± 0.051 µM | 37 ± 5% | 2.0 ± 0.4 | 0.021 ± 0.003 µM | 0.098 ± 0.012 µM
Cc1ncsc1-c1ccc(CNC(=O)[C@@H]2C[C@@H](O)CN2C(=O)[C@@H](NC(=O)C2(F)CC2)C(C)(C)C)c(OCCOCCOCCN2CCC(c3ccc4c(c3)n(C3CCCC3)c3nc(=O)c5c(Br)cccc5n43)CC2)c1 [compound 21] | 0.443 µM and 0.585 µM and 0.542 µM | 0.119 µM and 0.144 µM and 0.128 µM | > 25 µM | 0.106 ± 0.038 µM | 0.0339 µM and 0.0378 µM and 0.0414 µM | 0.0719 µM and 0.0802 µM and 0.0774 µM | 0.246 µM and 0.264 µM and 0.255 µM | 0.52 ± 0.073 µM | 0.13 ± 0.013 µM | 67± 8% | 2.0 ± 0.1 | 0.038 ± 0.004 µM | 0.255 ± 0.009 µM
CN1CCC(c2ccc3c(c2)n(C2CCCC2)c2nc(=O)c4c(Br)cccc4n32)CC1 [compound 3] | 95.4 nM and 105 nM and 124 nM and 115 nM and 117 nM and 113 nM (3×) and 121 nM and 114 nM and 81.2 nM and 90.5 nM and 95.1 nM and 82.4 nM and 86.5 nM and 90.1 nM and 86 nM and 90.3 nM (2×) and 78 nM and 69.2 nM and 191 nM and 161 nM and 107 nM and 99.4 nM and 89 nM and 90.2 nM and 81.3 nM and 182 nM and 188 nM and 131 nM and 128 nM and 126 nM and 132 nM and 94.7 nM and 129 nM and 86.8 nM and 102 nM and 109 nM and 112 nM | 101 nM and 109 nM (2×) and 108 nM and 118 nM (2×) and 103 nM and 112 nM and 115 nM (2×) and 104 nM and 76.8 nM and 91.4 nM and 77.5 nM and 72.4 nM and 95.9 nM and 122 nM and 90.9 nM and 83.6 nM and 106 nM and 89.9 nM and 93.4 nM (2×) and 86.9 nM and 97.7 nM and 84.8 nM and 184 nM and 180 nM and 117 nM and 86 nM and 87.9 nM and 87.4 nM and 189 nM and 202 nM and 148 nM and 124 nM and 121 nM and 136 nM and 97.4 nM and 130 nM and 99.2 nM and 105 nM and 102 nM | > 25 µM | 22.3 µM | 49.4 nM and 29.7 nM (2×) and 21.8 nM and 18 nM and 21.3 nM and 22.2 nM and 18.6 nM and 21.6 nM and 46 nM and 35.8 nM and 25 nM and 35.5 nM (2×) and 36.4 nM and 29.1 nM and 25.9 nM and 29.2 nM and 27.1 nM and 30.4 nM (2×) and 31.6 nM and 33.5 nM and 23 nM (2×) and 29.5 nM and 54.4 nM and 51.5 nM and 24 nM and 36.6 nM and 32.2 nM and 65.8 nM and 63.7 nM and 42.6 nM and 25.7 nM and 43.8 nM and 40.2 nM and 16.5 nM and 24.8 nM and 34.1 nM and 26.1 nM and 30.2 nM | 27.3 nM and 29.3 nM and 18.1 nM and 21.5 nM and 21.7 nM and 19.9 nM and 23.1 nM and 18.9 nM and 42.5 nM and 22.4 nM and 27 nM and 28.2 nM and 20.7 nM and 30.6 nM and 34 nM (3×) and 32.6 nM and 30.2 nM and 34.7 nM and 36.6 nM and 33.4 nM and 20.8 nM and 53.5 nM and 23.4 nM and 49.7 nM and 23 nM and 24 nM and 38.4 nM and 37.6 nM and 35 nM and 67.5 nM and 70.9 nM and 46.6 nM and 44.1 nM and 25.3 nM and 42.6 nM and 18.7 nM and 31.1 nM and 26.8 nM and 30.5 nM and 40.9 nM | 41.5 nM (2×) and 50.5 nM (2×) and 46.7 nM (2×) and 58.6 nM (2×) and 54.9 nM and 55.3 nM (2×) and 61.9 nM and 60.8 nM and 59.4 nM and 56.4 nM (2×) and 58.5 nM and 55.9 nM and 44.1 nM (3×) and 66.1 nM and 65.6 nM and 59.3 nM and 60.7 nM and 64.2 nM and 61.1 nM (2×) and 63.1 nM (2×) and 72.4 nM and 76.3 nM and 46.2 nM (2×) and 47.7 nM (2×) and 84.8 nM and 89.7 nM and 32 nM and 34.9 nM and 57.7 nM and 57.6 nM and 55.4 nM and 26.3 nM and 29.8 nM and 46.1 nM and 26.7 nM and 39.1 nM and 38.8 nM (2×) and 42.6 nM and 42.2 nM and 43 nM and 27.6 nM and 28.3 nM and 27.5 nM (2×) and 46 nM and 60.6 nM and 42.3 nM and 49.5 nM (2×) and 49.3 nM and 42.8 nM and 48.8 nM and 46.3 nM (2×) and 49.7 nM and 47.2 nM (2×) and 49 nM (2×) and 50.2 nM and 49.2 nM (3×) and 51.2 nM and 50.1 nM (2×) and 51.1 nM and 50.4 nM and 52.4 nM (2×) and 52.5 nM (2×) and 52 nM (2×) and 56.1 nM and 68 nM and 55.7 nM and 52.1 nM and 60.9 nM and 51.8 nM and 47 nM and 47.4 nM and 48.2 nM and 102 nM (2×) and 53.7 nM and 54.7 nM and 56.6 nM (2×) and 44.3 nM (2×) and 47.5 nM and 101 nM and 53.5 nM and 64.4 nM and 66.2 nM and 65.5 nM and 64.6 nM and 64.8 nM and 92.1 nM and 55.6 nM and 55.5 nM and 112 nM and 107 nM and 59.8 nM and 54.4 nM and 32.2 nM and 41.9 nM and 44.7 nM (2×) and 30.9 nM and 79.5 nM and 33.5 nM and 26.9 nM and 33.6 nM and 39.7 nM and 36.7 nM and 36.8 nM and 37.3 nM and 38.4 nM and 51.3 nM and 42.7 nM and 45.1 nM and 46.5 nM and 157 nM and 52.2 nM | 0.107 ± 0.029 µM | 0.108 ± 0.03 µM | – | – | 0.031 ± 0.011 µM | 0.048 ± 0.017 µM
Nc1cccc2c1c(=O)nc1n(C3CCCC3)c3ccccc3n21 [compound 2] | 2.34 µM and 2.88 µM and 2.05 µM | 2.27 µM and 2.61 µM and 2.11 µM | > 25 µM | > 25 µM | 0.934 µM and 1.02 µM and 0.925 µM | 1.08 µM and 1 µM and 0.929 µM | 1.62 µM and 1.97 µM and 1.53 µM and 2.04 µM | 2.4 µM | 2.32 µM | – | – | 0.959 ± 0.053 µM | 1.77 µM
